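Cells were grown in 96-well plates and exposed to each compound for 48 hours at five concentrations; endpoints were interpolated linearly between bracketing concentrations, or set to the highest concentration if not reached. Abbreviation: GI50, concentration required for 50% inhibition of growth.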 Active and inactive are the calls of the source. Cut-off read from the data, not from the text of the source: active = GI50 up to about 1.1 µM and inactive = higher.
Tests used:
Experiment in all cases: NCI anticancer screen, dose series, 48 h
NCI-H23 = tested on: NCI-H23
ACHN = tested on: ACHN
786-0 = tested on: 786-0
SK-OV-3 = tested on: SK-OV-3
SK-MEL-2 = tested on: SK-MEL-2
HT-29 = tested on: HT-29
A549 = tested on: A549
SK-MEL-5 = tested on: SK-MEL-5
SNB-19 = tested on: SNB-19
U-251 = tested on: U-251
HOP-18 = tested on: HOP-18
LOX IMVI = tested on: LOX IMVI
CCRF-CEM = tested on: CCRF-CEM
TK-10 = tested on: TK-10
NCI-H226 = tested on: NCI-H226
KM-20L2 = tested on: KM-20L2
SNB-75 = tested on: SNB-75

Measured: GI50

CC1=C(C(=O)Nc2ccccc2C)C(c2ccc(Cl)cc2)C(C(=O)Nc2ccccc2C)=C(C)N1
inactive: NCI-H23 > 100 µM | ACHN > 100 µM | 786-0 > 100 µM | SK-OV-3 > 100 µM | SK-MEL-2 > 100 µM | HT-29 > 100 µM | A549 > 100 µM | SK-MEL-5 > 100 µM | SNB-19 > 100 µM | U-251 > 100 µM | HOP-18 > 100 µM | LOX IMVI > 100 µM | CCRF-CEM > 100 µM | TK-10 > 100 µM | NCI-H226 > 100 µM

N#CC(C#N)=Cc1ccc(CP(=O)(O)O)cc1
inactive: NCI-H23 > 100 µM | ACHN > 100 µM | 786-0 > 100 µM | SK-OV-3 > 100 µM | SK-MEL-2 > 100 µM | HT-29 > 100 µM | A549 > 100 µM | KM-20L2 > 100 µM | SK-MEL-5 > 100 µM | SNB-19 > 100 µM | U-251 > 100 µM | HOP-18 > 100 µM | LOX IMVI > 100 µM | CCRF-CEM 44.2 µM | TK-10 > 100 µM | NCI-H226 > 100 µM

O=C1[C@H]2C(c3ccccc3)=NN(C(=O)c3ccccc3)[C@H]2C(=O)N1c1ccccc1
inactive: NCI-H23 > 100 µM | ACHN > 100 µM | 786-0 > 100 µM | SK-OV-3 > 100 µM | SK-MEL-2 > 100 µM | HT-29 > 100 µM | SNB-75 > 100 µM | A549 > 100 µM | SNB-19 > 100 µM | U-251 > 100 µM | HOP-18 68.4 µM | LOX IMVI > 100 µM | CCRF-CEM > 100 µM | TK-10 > 100 µM | NCI-H226 > 100 µM

C=CCC1(CN(C)C)CC/C(=C\c2cc(OC)c(OC)c(OC)c2)C1=O (stereo not drawn)
inactive: NCI-H23 35 µM | ACHN 25.8 µM | 786-0 19.4 µM | SK-MEL-2 42.8 µM | HT-29 20.5 µM | SNB-75 62.2 µM | A549 40.2 µM | KM-20L2 22 µM | SK-MEL-5 20 µM | SNB-19 34 µM | U-251 23 µM | HOP-18 22.3 µM | LOX IMVI 23.2 µM | CCRF-CEM 23.3 µM | TK-10 18.8 µM | NCI-H226 52.4 µM

O=c1c(Cc2ccccc2)c(O)cc2n1CCC2
inactive: NCI-H23 > 100 µM | ACHN > 100 µM | 786-0 > 100 µM | SK-OV-3 > 100 µM | HT-29 > 100 µM | SNB-75 > 100 µM | A549 > 100 µM | KM-20L2 > 100 µM | SK-MEL-5 > 100 µM | SNB-19 > 100 µM | U-251 > 100 µM | HOP-18 > 100 µM | LOX IMVI > 100 µM | CCRF-CEM 41.5 µM | TK-10 > 100 µM | NCI-H226 > 100 µM

COc1ccc(N2C(=O)C3c4[nH]c5ccccc5c4C4CC(C)CC(C)C4C3C2=O)cc1 (stereo not drawn)
inactive: NCI-H23 > 100 µM | ACHN > 100 µM | 786-0 > 100 µM | SK-OV-3 > 100 µM | HT-29 > 100 µM | SNB-75 > 100 µM | A549 > 100 µM | KM-20L2 > 100 µM | SK-MEL-5 > 100 µM | SNB-19 > 100 µM | U-251 > 100 µM | HOP-18 > 100 µM | CCRF-CEM > 100 µM | NCI-H226 > 100 µM

O=S1(=O)C[C@H](O)[C@H](O)CS1
inactive: NCI-H23 > 100 µM | ACHN > 100 µM | 786-0 > 100 µM | SK-OV-3 > 100 µM | HT-29 > 100 µM | SNB-75 > 100 µM | A549 > 100 µM | KM-20L2 > 100 µM | SK-MEL-5 > 100 µM | SNB-19 > 100 µM | U-251 > 100 µM | HOP-18 > 100 µM | LOX IMVI > 100 µM | TK-10 > 100 µM | NCI-H226 > 100 µM

BrC(Br)([P+](c1ccccc1)(c1ccccc1)c1ccccc1)[P+](c1ccccc1)(c1ccccc1)c1ccccc1
inactive: NCI-H23 16.8 µM | ACHN 17.7 µM | 786-0 13.5 µM | SK-OV-3 38.5 µM | SK-MEL-2 16.5 µM | HT-29 13.6 µM | SNB-75 19.4 µM | A549 26.3 µM | KM-20L2 24.9 µM | SK-MEL-5 15.9 µM | U-251 20.3 µM | HOP-18 > 100 µM | LOX IMVI 13.2 µM | TK-10 14.1 µM | NCI-H226 20.3 µM

CC[P+]1(c2ccccc2)CCCCC1
inactive: NCI-H23 > 100 µM | ACHN > 100 µM | 786-0 > 100 µM | SK-OV-3 > 100 µM | SK-MEL-2 > 100 µM | HT-29 > 100 µM | SNB-75 > 100 µM | A549 > 100 µM | KM-20L2 > 100 µM | SK-MEL-5 > 100 µM | SNB-19 > 100 µM | U-251 > 100 µM | HOP-18 > 100 µM | LOX IMVI > 100 µM | CCRF-CEM > 100 µM | TK-10 > 100 µM | NCI-H226 > 100 µM

O=CN/C=C\c1cc(O)ccc1O
inactive: NCI-H23 15.8 µM | ACHN 15 µM | 786-0 15.8 µM | SK-OV-3 > 100 µM | SK-MEL-2 > 48.9 µM | HT-29 16.9 µM | SNB-75 > 100 µM | A549 > 100 µM | KM-20L2 14.8 µM | SK-MEL-5 7.59 µM | SNB-19 > 100 µM | U-251 32 µM | HOP-18 16.8 µM | LOX IMVI 7.23 µM | CCRF-CEM 5.11 µM | TK-10 > 46.2 µM | NCI-H226 14.5 µM

Oc1cc(O)c(Oc2cccc(O)c2O)c(O)c1
inactive: NCI-H23 > 100 µM | ACHN > 100 µM | 786-0 42.6 µM | SK-OV-3 > 100 µM | SK-MEL-2 37.8 µM | HT-29 > 100 µM | SNB-75 45.8 µM | A549 > 100 µM | SK-MEL-5 18.6 µM | SNB-19 > 100 µM | U-251 > 100 µM | HOP-18 > 100 µM | CCRF-CEM 33.3 µM | TK-10 > 100 µM

COc1ccccc1/C=C\c1cc(OC)c(OC)c(OC)c1
inactive: ACHN 33.8 µM | 786-0 31.2 µM | HT-29 3.97 µM | SNB-75 10.7 µM | A549 6.08 µM | SK-MEL-5 4.33 µM | SNB-19 39.4 µM | U-251 6.03 µM | HOP-18 > 100 µM | LOX IMVI 9.59 µM | CCRF-CEM 16.7 µM | TK-10 43.6 µM | NCI-H226 19.2 µM

Cc1ccccc1NC(=O)CC(=O)NNCC(=O)Nc1nnc(-c2ccccc2)s1
inactive: NCI-H23 > 100 µM | ACHN 54.2 µM | 786-0 31.9 µM | SK-MEL-2 > 100 µM | HT-29 > 100 µM | SNB-75 24.7 µM | A549 > 100 µM | KM-20L2 > 100 µM | SK-MEL-5 51.1 µM | SNB-19 79.1 µM | U-251 50 µM | HOP-18 29 µM | LOX IMVI 51.3 µM | TK-10 42.7 µM | NCI-H226 26.5 µM

O=C(Nc1nc2c(ncn2C2OC(CO)C(O)C2O)c(=O)[nH]1)c1ccccc1 (stereo not drawn)
inactive: NCI-H23 > 100 µM | ACHN > 100 µM | 786-0 > 100 µM | SK-OV-3 > 100 µM | SK-MEL-2 > 100 µM | HT-29 > 100 µM | SNB-75 > 100 µM | A549 > 100 µM | KM-20L2 > 100 µM | SK-MEL-5 > 100 µM | U-251 > 100 µM | HOP-18 > 100 µM | LOX IMVI > 100 µM | CCRF-CEM 2.5 µM | TK-10 > 100 µM | NCI-H226 > 100 µM

CC(C)C1=Cc2ccc3c(c2C(=O)C1=O)CCCC3(C)C [MILTIRONE]
inactive: NCI-H23 13.7 µM | ACHN 5.82 µM | 786-0 5.65 µM | SK-OV-3 18.1 µM | SK-MEL-2 17 µM | HT-29 20.1 µM | SNB-75 15.3 µM | A549 18.3 µM | KM-20L2 20.3 µM | SK-MEL-5 12.3 µM | SNB-19 17.2 µM | U-251 14.2 µM | HOP-18 2.58 µM | LOX IMVI 12.2 µM | CCRF-CEM 1.17 µM | TK-10 3.14 µM | NCI-H226 20.5 µM

Cc1ccccc1C1=C(C(=O)Nc2ccc(Cl)c(Cl)c2)NC(=S)NC1N (stereo not drawn)
inactive: NCI-H23 > 100 µM | ACHN > 100 µM | 786-0 > 100 µM | SK-OV-3 > 100 µM | SK-MEL-2 > 100 µM | HT-29 > 100 µM | SNB-75 > 100 µM | A549 > 100 µM | KM-20L2 > 100 µM | SK-MEL-5 > 100 µM | SNB-19 > 100 µM | U-251 > 100 µM | HOP-18 > 100 µM | LOX IMVI > 100 µM | CCRF-CEM > 100 µM | TK-10 > 100 µM

Cc1ccc(NC(=O)C(=O)C2C(=O)N(c3ccccc3)N=C2N)cc1C (stereo not drawn)
inactive: NCI-H23 > 100 µM | ACHN > 100 µM | 786-0 > 100 µM | SK-OV-3 > 100 µM | HT-29 > 100 µM | SNB-75 > 100 µM | A549 > 100 µM | KM-20L2 > 100 µM | SK-MEL-5 > 100 µM | SNB-19 > 100 µM | U-251 > 100 µM | HOP-18 > 100 µM | CCRF-CEM > 100 µM | TK-10 > 100 µM | NCI-H226 > 100 µM

COc1ccc(C2C3=C(COC3=O)Oc3cc4c(cc32)OCO4)cc1 (stereo not drawn)
inactive: NCI-H23 20.1 µM | ACHN 21.1 µM | 786-0 27.2 µM | SK-OV-3 > 100 µM | SK-MEL-2 47.1 µM | HT-29 3.81 µM | SNB-75 8.3 µM | A549 9.18 µM | KM-20L2 11.9 µM | SK-MEL-5 11.7 µM | SNB-19 61.4 µM | U-251 23.9 µM | HOP-18 18.6 µM | LOX IMVI 27.4 µM | CCRF-CEM 6.46 µM | TK-10 29.3 µM

— ChEMBL document CHEMBL1201862, “PubChem BioAssay data set” (2004)
